Results taken from the Kinase Knowledgebase extract (Sharma et al. 2016).

Target: MAPK14 (human) (UniProt Q16539)
Test: Inhibition of MAPK14 Kinase Activity

Chain of MAPK14 (human) (Q16539 whole entry, looked up): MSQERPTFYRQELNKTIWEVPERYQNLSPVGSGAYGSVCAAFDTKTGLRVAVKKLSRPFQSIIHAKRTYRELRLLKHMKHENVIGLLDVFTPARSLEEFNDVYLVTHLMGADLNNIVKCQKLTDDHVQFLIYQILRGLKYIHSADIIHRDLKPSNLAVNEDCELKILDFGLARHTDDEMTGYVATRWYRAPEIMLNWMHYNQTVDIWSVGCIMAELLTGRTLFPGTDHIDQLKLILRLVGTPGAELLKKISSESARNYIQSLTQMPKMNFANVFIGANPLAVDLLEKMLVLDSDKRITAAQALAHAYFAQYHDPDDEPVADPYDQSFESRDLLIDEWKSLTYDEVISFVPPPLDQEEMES

| IC50 [µM] | SMILES |
| --- | --- |
| ≤ 10 | CNC1CCC(Cl)C(N2CC(Cc3ccc(F)cc3F)CCC2=O)C1Cl (stereo not drawn) |
| ≤ 10 | O=C1CCC(Sc2ccccc2)CN1C1C(Cl)CCCC1Cl (stereo not drawn) |
| ≤ 10 | O=C1NCC(Cc2ccc3ccccc3c2)CN1c1c(Cl)cccc1Cl (stereo not drawn) |
| ≤ 10 | O=C1CCC(Sc2ccccc2F)CN1c1c(Cl)csc1Cl (stereo not drawn) |
| ≤ 10 | O=C1CCC(Sc2cccc3ccccc23)CN1C1C(Cl)CCCC1Cl (stereo not drawn) |
| ≤ 10 | O=C1COC(Cc2ccc(F)cc2F)CN1c1c(Cl)cc(CO)cc1Cl (stereo not drawn) |
| ≤ 10 | O=C1CC/C(=C\c2ccc(F)cc2F)CN1c1c(Cl)cccc1Cl |
| ≤ 10 | COc1ccccc1SC1CCC(=O)N(c2c(Cl)cncc2Cl)C1 (stereo not drawn) |
| ≤ 10 | Cc1cc(C(=O)NCCCC(=O)O)cc(C)c1N1CC(Cc2ccc(F)cc2F)CCC1=O (stereo not drawn) |
| ≤ 10 | CN1CC(Cc2cc(Cl)cc(Cl)c2)CN(c2c(Cl)cccc2Cl)C1=O (stereo not drawn) |
| ≤ 10 | Cc1cc(C#CCCOC2CCCCO2)cc(C)c1N1CC(Cc2ccc(F)cc2F)CCC1=O (stereo not drawn) |
| ≤ 10 | Cc1cccc(C)c1N1CC(Cc2ccccc2OCC(=O)O)CCC1=O (stereo not drawn) |
| ≤ 10 | O=C1CCC(Cc2cccc3ccccc23)CN1c1c(Cl)ccnc1Cl (stereo not drawn) |
| ≤ 10 | CC(=O)Nc1cnc(Cl)c(N2CC(Oc3ccc(F)cc3F)CCC2=O)c1Cl (stereo not drawn) |
| ≤ 10 | CN1CC(Cc2ccc(F)cc2F)CN(c2c(Cl)cc(O)cc2Cl)C1=O (stereo not drawn) |
| ≤ 10 | O=C1CCC(Cc2ccc(F)cc2F)CN1c1c(Cl)cc(O)nc1Cl (stereo not drawn) |
| ≤ 10 | CNC(=O)c1cc(C)c(N2CC(Cc3ccc(F)cc3F)CCC2=O)c(C)c1 (stereo not drawn) |
| ≤ 10 | O=C1CCC(Cc2ccc(OC(F)(F)F)cc2)CN1c1c(Cl)cccc1Cl (stereo not drawn) |
| ≤ 10 | Cc1ccc(OC2CCC(=O)N(c3c(Cl)cncc3Cl)C2)cc1 (stereo not drawn) |
| ≤ 10 | O=C1CCC(Sc2cc(Cl)cc(Cl)c2)CN1C1C(Cl)CCCC1Cl (stereo not drawn) |
| ≤ 10 | COc1ccc(SC2CCC(=O)N(c3c(Cl)ccnc3Cl)C2)cc1 (stereo not drawn) |
| ≤ 10 | Cc1ccc(CC2CCC(=O)N(c3c(Cl)ccnc3Cl)C2)cc1 (stereo not drawn) |
| ≤ 10 | O=C1CCC(Oc2ccc(F)cc2F)CN1c1c(Cl)cc(O)nc1Cl (stereo not drawn) |

| IC50 [µM] | SMILES |
| --- | --- |
| ≤ 10 | Cc1ccc(CC2CCC(=O)N(c3c(Cl)cccc3Cl)C2)c(C)c1 (stereo not drawn) |
| ≤ 10 | O=C1CCC(Cc2cc(F)cc(F)c2)CN1c1c(Cl)ccnc1Cl (stereo not drawn) |
| ≤ 10 | O=C(O)/C=C/c1ccccc1CC1CCC(=O)N(c2c(Cl)cccc2Cl)C1 (stereo not drawn) |
| ≤ 10 | CNc1cc(Cl)c(N2CC(Oc3ccc(F)cc3F)CCC2=O)c(Cl)n1 (stereo not drawn) |
| ≤ 10 | Nc1cnc(Cl)c(N2CC(Sc3ccc(F)cc3F)CCC2=O)c1Cl (stereo not drawn) |
| ≤ 10 | O=C1CCC(Oc2ccc(F)cc2F)CN1c1c(Cl)ccnc1Cl (stereo not drawn) |
| ≤ 10 | O=C1COC(Cc2ccccc2F)CN1c1c(Cl)cccc1Cl (stereo not drawn) |
| ≤ 10 | O=C1CCC(Cc2ccc(F)cc2F)CN1c1c(Cl)cc(NCc2ccccn2)cc1Cl (stereo not drawn) |
| ≤ 10 | O=C1COC(Cc2cc(F)cc(F)c2)CN1c1c(Cl)cccc1Cl (stereo not drawn) |
| ≤ 10 | Cc1ccccc1CC1CCC(=O)N(c2c(Cl)ccnc2Cl)C1 (stereo not drawn) |
| ≤ 10 | O=C1CNC(Cc2ccc(F)cc2F)CN1c1c(Cl)cccc1Cl (stereo not drawn) |
| ≤ 10 | Nc1ccc(Cl)c(N2CC(Oc3ccc(F)cc3F)CCC2=O)c1Cl (stereo not drawn) |
| ≤ 10 | O=C(Cc1ccccc1)Nc1ncc(Cl)c(N2CC(Cc3ccc(F)cc3F)CCC2=O)c1Cl (stereo not drawn) |
| ≤ 10 | Cc1ccccc1CC1CCC(=O)N(c2c(Cl)cncc2Cl)C1 (stereo not drawn) |
| ≤ 10 | COc1ccccc1OC1CCC(=O)N(c2c(Cl)cncc2Cl)C1 (stereo not drawn) |
| ≤ 10 | O=C1CCC(Oc2ccccc2Cl)CN1c1c(Cl)csc1Cl (stereo not drawn) |
| ≤ 10 | COc1ccccc1OC1CCC(=O)N(c2c(Cl)cccc2Cl)C1 (stereo not drawn) |
| ≤ 10 | CC(c1ccc(F)cc1F)C1CCC(=O)N(c2c(Cl)cccc2Cl)C1 (stereo not drawn) |
| ≤ 10 | O=C(Cc1ccccc1)Nc1cc(Cl)c(N2CC(Oc3ccc(F)cc3F)CCC2=O)c(Cl)c1 (stereo not drawn) |
| ≤ 10 | O=C1CCC(Cc2ccc(F)cc2F)CN1C1C(Cl)CCC(O)C1Cl (stereo not drawn) |
| ≤ 10 | CNc1cc(Cl)c(N2CC(Cc3ccc(F)cc3F)CSC2=O)c(Cl)c1 (stereo not drawn) |
| ≤ 10 | Cc1cc(C)cc(CC2CN(c3c(Cl)cccc3Cl)C(=O)CO2)c1 (stereo not drawn) |
| ≤ 10 | COc1ccccc1CC1CCC(=O)N(c2c(Cl)ccnc2Cl)C1 (stereo not drawn) |

| IC50 [µM] | SMILES |
| --- | --- |
| ≤ 10 | Cn1nc(C(C)(C)C)cc1NC(=O)CCc1ccccc1CC1CCC(=O)N(c2c(Cl)cccc2Cl)C1 (stereo not drawn) |
| ≤ 10 | O=C1OCC(Cc2ccc(Cl)cc2Cl)CN1c1c(Cl)cccc1Cl (stereo not drawn) |
| ≤ 10 | O=C1CSC(Cc2ccccc2)CN1c1c(Cl)cccc1Cl (stereo not drawn) |
| ≤ 10 | O=C1CCC(Oc2ccc(Cl)cc2)CN1c1c(Cl)cncc1Cl (stereo not drawn) |
| ≤ 10 | O=C1CCC(Sc2cccc3ccccc23)CN1c1c(Cl)cccc1Cl (stereo not drawn) |
| ≤ 10 | CC(=O)NC1CCC(Cl)C(N2CC(Cc3ccc(F)cc3F)CCC2=O)C1Cl (stereo not drawn) |
| ≤ 10 | O=C1CCC(Oc2ccc(Cl)cc2Cl)CN1C1C(Cl)CCCC1Cl (stereo not drawn) |
| ≤ 10 | O=C1CCC(Oc2ccccc2)CN1c1c(Cl)cccc1Cl (stereo not drawn) |
| ≤ 10 | O=C1CCC(Cc2ccc(Cl)cc2)CN1c1c(Cl)cccc1Cl (stereo not drawn) |
| ≤ 10 | O=C(Cc1ccccc1)Nc1ccc(Cl)c(N2CC(Cc3ccc(F)cc3F)CSC2=O)c1Cl (stereo not drawn) |
| ≤ 10 | CNc1cc(Cl)c(N2CC(Cc3ccc(F)cc3F)SCC2=O)c(Cl)c1 (stereo not drawn) |
| ≤ 10 | O=C1CCC(Sc2ccc(F)cc2F)CN1c1c(Cl)cc(O)nc1Cl (stereo not drawn) |
| ≤ 10 | CC(=O)Nc1cc(Cl)c(N2CC(Cc3ccc(F)cc3F)CSC2=O)c(Cl)c1 (stereo not drawn) |
| ≤ 10 | O=C(Cc1ccccc1)Nc1cnc(Cl)c(N2CC(Cc3ccc(F)cc3F)CCC2=O)c1Cl (stereo not drawn) |
| ≤ 10 | O=C1SCC(Cc2ccc(F)cc2F)CN1c1c(Cl)cccc1Cl (stereo not drawn) |
| ≤ 10 | Cc1cccc(C)c1N1CC(/C=C/Cc2ccccc2)(CO)CCC1=O (stereo not drawn) |
| ≤ 10 | CC(=O)Nc1cc(Cl)c(N2CC(Cc3ccc(F)cc3F)CN(C)C2=O)c(Cl)c1 (stereo not drawn) |
| ≤ 10 | Cc1cc(C)cc(CC2COC(=O)N(c3c(Cl)cccc3Cl)C2)c1 (stereo not drawn) |
| ≤ 10 | CN(C)CCCNc1cc(Cl)c(N2CC(Cc3ccc(F)cc3F)CCC2=O)c(Cl)c1 (stereo not drawn) |
| ≤ 10 | CN1CCC(Nc2cc(Cl)c(N3CC(Cc4ccc(F)cc4F)CCC3=O)c(Cl)c2)CC1 (stereo not drawn) |
| ≤ 10 | Cc1ccc(OC2CCC(=O)N(c3c(Cl)cccc3Cl)C2)cc1 (stereo not drawn) |
| ≤ 10 | Cc1cc(C)cc(SC2CCC(=O)N(c3c(Cl)csc3Cl)C2)c1 (stereo not drawn) |
| ≤ 10 | O=C1CCC(Sc2ccc(F)cc2F)CN1c1c(Cl)cc(O)cc1Cl (stereo not drawn) |

| IC50 [µM] | SMILES |
| --- | --- |
| ≤ 10 | COc1ccc(OC2CCC(=O)N(c3c(Cl)csc3Cl)C2)cc1 (stereo not drawn) |
| ≤ 10 | O=C1CSC(Cc2ccccc2Cl)CN1c1c(Cl)cccc1Cl (stereo not drawn) |
| ≤ 10 | CC(=O)Nc1sc(Cl)c(N2CC(Sc3ccc(F)cc3F)CCC2=O)c1Cl (stereo not drawn) |
| ≤ 10 | Cc1cc(C)cc(OC2CCC(=O)N(c3c(Cl)cncc3Cl)C2)c1 (stereo not drawn) |
| ≤ 10 | O=C1CCC(Cc2ccc(F)cc2F)CN1c1c(Cl)cc(Br)cc1Cl (stereo not drawn) |
| ≤ 10 | Cc1cc(C(=O)O)cc(C)c1N1C[C@@H](Cc2ccc(F)cc2F)C[C@@H](C)C1=O |
| ≤ 10 | CN(C)CCN(C(=O)OC(C)(C)C)c1cc(Cl)c(N2CC(Cc3ccc(F)cc3F)CCC2=O)c(Cl)c1 (stereo not drawn) |
| ≤ 10 | Cc1ccccc1OC1CCC(=O)N(C2C(Cl)CCCC2Cl)C1 (stereo not drawn) |
| ≤ 10 | Cc1cc(C)cc(CC2CSC(=O)N(c3c(Cl)cccc3Cl)C2)c1 (stereo not drawn) |
| ≤ 10 | O=C1CCC(Cc2ccc(F)cc2F)CN1c1c(Cl)ccnc1Cl (stereo not drawn) |
| ≤ 10 | O=C1SCC(Cc2cc(Cl)cc(Cl)c2)CN1c1c(Cl)cccc1Cl (stereo not drawn) |
| ≤ 10 | CNc1ncc(Cl)c(N2CC(Oc3ccc(F)cc3F)CCC2=O)c1Cl (stereo not drawn) |
| ≤ 10 | O=C1CCC(Cc2ccc(F)cc2F)CN1C1C(Cl)CCC(CO)C1Cl (stereo not drawn) |
| ≤ 10 | CN1CC(Cc2ccc(F)cc2)CN(c2c(Cl)cccc2Cl)C1=O (stereo not drawn) |
| ≤ 10 | CN1CC(Cc2ccc(F)cc2F)CN(c2c(Cl)cccc2Cl)C1=O (stereo not drawn) |
| ≤ 10 | O=C(Cc1ccccc1)Nc1cc(Cl)c(N2CC(Cc3ccc(F)cc3F)CCC2=O)c(Cl)n1 (stereo not drawn) |
| ≤ 10 | O=C(O)CCC(=O)Nc1cc(Cl)c(N2CC(Cc3ccc(F)cc3F)CCC2=O)c(Cl)c1 (stereo not drawn) |
| ≤ 10 | Cc1cc(C)cc(SC2CCC(=O)N(C3C(Cl)CCCC3Cl)C2)c1 (stereo not drawn) |
| ≤ 10 | COc1ccc(CC2CN(c3c(Cl)cccc3Cl)C(=O)CO2)cc1 (stereo not drawn) |
| ≤ 10 | Cc1ccccc1SC1CCC(=O)N(c2c(Cl)cccc2Cl)C1 (stereo not drawn) |
| ≤ 10 | Cc1cc(C(=O)NCCCN(C)C)cc(C)c1N1CC(Cc2ccc(F)cc2F)CCC1=O (stereo not drawn) |
| ≤ 10 | O=C1CCC(Sc2ccc(F)cc2F)CN1c1c(Cl)cnc(CO)c1Cl (stereo not drawn) |
| ≤ 10 | O=C1CCC(Oc2ccccc2Cl)CN1c1c(Cl)ccnc1Cl (stereo not drawn) |

| IC50 [µM] | SMILES |
| --- | --- |
| ≤ 10 | Cc1cccc(NC(=O)NCc2ccccc2CC2CCC(=O)N(c3c(Cl)cccc3Cl)C2)c1 (stereo not drawn) |
| ≤ 10 | O=C1SCC(Cc2ccc(F)cc2F)CN1c1c(Cl)cc(O)cc1Cl (stereo not drawn) |
| ≤ 10 | CC(=O)Nc1ncc(Cl)c(N2CC(Cc3ccc(F)cc3F)CCC2=O)c1Cl (stereo not drawn) |
| ≤ 10 | O=C1CCC(Oc2ccc(Cl)cc2)CN1c1c(Cl)csc1Cl (stereo not drawn) |
| ≤ 10 | Cc1cc(C(=O)NCCN(C)C)cc(C)c1N1CC(Cc2ccc(F)cc2F)CNC1=O (stereo not drawn) |
| ≤ 10 | Cc1cc(C)cc(CC2CCC(=O)N(c3c(Cl)cccc3Cl)C2)c1 (stereo not drawn) |
| ≤ 10 | O=C1CCC(Sc2ccc(F)cc2F)CN1c1c(Cl)cc(CO)cc1Cl (stereo not drawn) |
| ≤ 10 | Cc1cccc(C)c1N1C[C@@H](N(CCO)S(=O)(=O)c2ccc(F)cc2F)CCC1=O |
| ≤ 10 | Nc1cc(Cl)c(N2CC(C(=NO)c3ccc(F)cc3F)CCC2=O)c(Cl)c1 (stereo not drawn) |
| ≤ 10 | COc1ccccc1SC1CCC(=O)N(c2c(Cl)cccc2Cl)C1 (stereo not drawn) |
| ≤ 10 | Cc1cc(C#CCCN(C)C)cc(C)c1N1CC(Cc2ccc(F)cc2F)CCC1=O (stereo not drawn) |
| ≤ 10 | COc1ccccc1SC1CCC(=O)N(c2c(Cl)csc2Cl)C1 (stereo not drawn) |
| ≤ 10 | O=C1CCC(Cc2ccccc2)CN1c1c(F)cccc1F (stereo not drawn) |
| ≤ 10 | O=C(O)CNc1ccc(Cl)c(N2CC(Cc3ccc(F)cc3F)CCC2=O)c1 (stereo not drawn) |
| ≤ 10 | NC(=O)/C=C/c1cc(Cl)c(N2CC(Cc3ccc(F)cc3F)CCC2=O)c(Cl)c1 (stereo not drawn) |
| ≤ 10 | CC(=O)Nc1cc(Cl)c(N2CC(Oc3ccc(F)cc3F)CCC2=O)c(Cl)c1 (stereo not drawn) |
| ≤ 10 | Cc1cccc(C)c1N1CC(Cc2ccccc2C(=O)O)CCC1=O (stereo not drawn) |
| ≤ 10 | O=C1CCC(Cc2ccc(Cl)cc2Cl)CN1C1C(Cl)CCCC1Cl (stereo not drawn) |
| ≤ 10 | Cc1cc(C)cc(SC2CCC(=O)N(c3c(Cl)ccnc3Cl)C2)c1 (stereo not drawn) |
| ≤ 10 | O=C1SCC(Cc2ccc(Cl)cc2)CN1c1c(Cl)cccc1Cl (stereo not drawn) |
| ≤ 10 | CCOC(=O)CNc1ccc(Cl)c(N2CC(Cc3ccc(F)cc3F)CCC2=O)c1 (stereo not drawn) |
